The text below walks through data of patent publication US12485132B2, “GPX4 inhibitors and senolytic compounds and uses thereof” (Rubedo Life Sciences, Inc., priority 2023, dated 2025).

Holding throughout (assay type): cell-based
One test concerns senescent HEPG2 cells. In words: Senescence assay: viability of senescent HEPG2 cells. Conditions: Homo sapiens, 24-72 hours incubation, viability by CellTiter-Glo or XTT, read-out: Absolute IC50 average HEPG2_SEN IC50. In a few lines: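 A549 and HEPG2 cells made senescent by sublethal chemotherapy (bleomycin, gemcitabine, doxorubicin or 5-fluorouridine) plus recovery, verified by low EdU and high SA-β-Gal. Ten-point duplicate dosing for 24-72 h; viability by CellTiter-Glo or XTT versus untreated cells; absolute IC50 from four-parameter Hill fit.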

For test [1], the system named is senescent normal human dermal fibroblasts. Briefly: Rescue of compound-induced cell death by ferrostatin-1 in senescent fibroblasts. Conditions: compounds at 1.11 μM, ferrostatin-1 at 0.375 and 6 μM; 24 hours; CellTiter-Glo. The source says: Cell death induced by ferroptosis-inducing agents can be characterized by rescuing the cellular response with radical trapping agents that prevent the accumulation of phospholipid hydroperoxides (Stockwell et al., Cell Chem Biol 2020 27 (4): 365-375). As such, ferrostatin-1 was identified as a potent inhibitor of ferroptosis for which a free radical trapping mechanism had been reported (Skouta et al., J Am Chem Soc 2014 136 (12): 4551-6; Zika et al., ACS Cent Sci. 2017 3 (3): 232-243; and Miotto et al., Redox Biol. 2020; 101328). To determine whether compounds 18 and 32 induce ferroptosis in senescent cells, normal human dermal fibroblasts were induced to undergo senescence by treatment with a sublethal concentration of chemotherapy (bleomycin sulfate), followed by a rest period without chemotherapy similarly to previous reports (Aoshiba et al., 2003 3:436-43). Cells were maintained in DMEM media (high glucose, 4 mM L-glutamine, no sodium pyruvate) supplemented with 10% heat-inactivated fetal bovine serum in a humidified incubator at 37° C. with 5% carbon dioxide and 5% oxygen. Cellular senescence was qualified by reduced EdU (5-ethynyl-2′-deoxyuridine) incorporation and increased SA-β-Gal (senescence-associated beta-galactosidase) staining compared to proliferating untreated cells. Senescent fibroblasts were plated into 96-well plates at a density of 10,000 cells per well. The next day, ferrostatin-1 was diluted in cell medium to reach a final concentration of 0.375 and 6 μM and was added to cells. Approximately 30 minutes after the addition of ferrostatin-1, compounds 18 and 32 at 1.11 μM, or the peptidyl transfer inhibitor puromycin at 10 μM were added to cells. Cells were incubated with the compounds for 24 hours, at which point viability was quantified using the CellTiter-Glo assay (Promega). The viability for treated cells was determined relative to untreated control cells.
A general note: In ATP-based viability assays light output follows the ATP content of the culture.

The test system of the next test is senescent A549 cells. In words: Senescence assay: viability of senescent A549 cells. To be noted: Homo sapiens, 24-72 hours incubation, viability by CellTiter-Glo or XTT, read-out: Absolute IC50 average A549_SEN IC50. On the procedure: Cells were maintained in DMEM media (high glucose, 4 mM L-glutamine, no sodium pyruvate) supplemented with 10% fetal bovine serum in a humidified incubator at 37° C. with 5% carbon dioxide. Senescence was induced via treatment with a sublethal concentration of chemotherapy (bleomycin, gemcitabine, doxorubicin, 5-fluorouridine), followed by a rest period without chemotherapy similarly to what is reported by others in the field (e.g., Aoshiba et al., 2003 Eur Respir J 22:436-443). Senescence was qualified by low EdU (5-ethynyl-2′-deoxyuridine) incorporation and high SA-β-Gal (senescence-associated beta-galactosidase) staining compared to proliferating untreated cells. Senescent cells were plated into 96-well plates at a density of 5-15,000 cells/well. The next day, compounds were added in duplicate across ten different concentrations spanning roughly four Log10 units. Cells were incubated with the compounds for 24-72 hours, at which point viability was quantified using CellTiter-Glo (Promega) or XTT (R&D Systems). The viability for treated cells was determined relative to untreated control cells. The log of the compound concentration vs. normalized mean viability was fit to a four parameters Hill function with variable slope. The bottom was constrained to be greater than zero. The X mean value for Y=50 was interpolated to determine the absolute IC50. The results in Table 2 indicate that many of the compounds are active in cells and can induce a dose dependent decrease in the viability of senescent HEPG2 and A549 cells.

Another test has as its target T1, GPX4 (Homo sapiens, UniProt P36969).
T1 sequence (P36969 1-197): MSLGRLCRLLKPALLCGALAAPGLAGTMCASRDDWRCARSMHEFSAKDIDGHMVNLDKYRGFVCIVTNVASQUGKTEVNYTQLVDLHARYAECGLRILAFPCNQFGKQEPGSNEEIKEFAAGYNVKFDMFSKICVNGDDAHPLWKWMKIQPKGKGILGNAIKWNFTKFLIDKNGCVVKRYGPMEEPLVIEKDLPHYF
Briefly: Competitive binding to GPX4 in A549 cells with biotinylated analog, streptavidin pull-down. Conditions: 2 μM for 2 hours before 2 μM compound 21 for 5 hours. Set-up: host or cells: A549. On the procedure:
Binding of compounds 32 and 69 to the target protein GPX4 in cultured cells can be assessed by the use of biotinylated analogs such as compound 21 that retain their cellular activities. Cells or tissue simultaneously or sequentially exposed to compounds 32 and 69 and biotinylated analog 21 can be analyzed for exogenous biotinylated proteins and thereby enables the identification of cellular targets of compounds 32 and 69. The A549 cancer cell line (ATCC) was exposed to 2 μM of compounds 32 and 69 for 2 hours followed by the addition of 2 μM of compound 21 for 5 hours. Cells were collected and lysed by IGEPAL CA-630 and sodium dodecyl sulfate (SDS) in the presence of a protease inhibitor cocktail (4693132001, Roche). The soluble protein fraction was isolated and incubated with Streptavidin Mag Sepharose (28-9857-38, Cytiva) at 4° C. for 16 hours. The streptavidin-unbound fraction was collected allowing for the quantification of the proportion of GPX4 depleted by the biotinylated compound 21 relative to samples not treated with Streptavidin Mag Sepharose. Furthermore, biotinylated proteins were eluted from Streptavidin Mag Sepharose by head-denaturation in the presence of excess biotin (5 mM). […] Chemiluminescent following HRP substrate addition (34580, ThermoFisher) was detected by the ChemiDoc XRS+ System (Bio-Rad). […]

SMILES strings stand for the structures.

By IC50 is commonly meant the concentration that gives 50% inhibition. For the compound `C#CC(F)(F)[C@]1(O)CC[C@H]2[C@@H]3CCC4=CC(=NOCCO)CCC4=C3[C@@H](c3ccc(C4CC4)cc3)C[C@@]21C` [Compound 18, (8S,11R,13S,14S,17S)-11-(4-cyclopropylphenyl)-17-(1,1-difluoroprop-2-yn-1-yl)-17-hydroxy-13-methyl-1,2,6,7,8,11,12,13,14,15,16,17-dodecahydro-3H-cyclopenta[a]phenanthren-3-one O-(2-hydroxyethyl)oxime], the values for the IC50 with senescent HEPG2 cells and in the test with senescent A549 cells were 0.1 to 10 nM and 10 to 100 nM, respectively. Moreover, the “inhibition by ferrostatin-1 of compound-induced cell death” value in test [1] was “potently inhibits cell death induced by compounds 18 and 32”.
As for `C#CC(F)(F)[C@]1(O)CC[C@H]2[C@@H]3CCC4=C/C(=N/NC(=O)NC5CC5)CCC4=C3[C@@H](c3ccc(C4CC4)cc3)C[C@@]21C` [Compound 69, (E)-N-cyclopropyl-2-((8S,11R,13S,14S,17S)-11-(4-cyclopropylphenyl)-17-(1,1-difluoroprop-2-yn-1-yl)-17-hydroxy-13-methyl-1,2,6,7,8,11,12,13,14,15,16,17-dodecahydro-3H-cyclopenta[a]phenanthren-3-ylidene)hydrazine-1-carboxamide], the “effect of pre-treatment on compound 21 dependent depletion of GPX4 protein” value on GPX4 is listed as “reduces the compound 21 dependent depletion of GPX4 protein”.
As for `CCOC(=O)c1ccc(NC2CCCCC2)c(N)c1` [ferrostatin-1, reference compound], the “inhibition by ferrostatin-1 of compound-induced cell death” value in test [1] is “potently inhibits cell death”.
